Values joined by “and” are separate entries in the source; they are usually repeats but may differ in a detail not shown here. Equal values may be shown once.
Experiment: Human dosimetry estimation from small animal PET/MRI (imaging method)
Type: in vivo, CD-1 mice
Conditions: for OD Adrenals / OD Brain / OD Breasts / OD Gallbladder Wall / OD Heart Wall / OD Kidneys / OD LLI Wall / OD Liver / OD Lungs / OD Muscle / OD Osteogenic Cells / OD Ovaries / OD Pancreas / OD Red Marrow / OD Skin / OD Small Intestine / OD Spleen / OD Stomach Wall / OD Testes / OD Thymus / OD Thyroid / OD Total Body / OD ULI Wall / OD Urinary Bladder Wall / OD Uterus / ED Contr. Adrenals / ED Contr. Brain / ED Contr. Breasts / ED Contr. Gallbladder Wall / ED Contr. Heart Wall / ED Contr. Kidneys / ED Contr. LLI Wall / ED Contr. Liver / ED Contr. Lungs / ED Contr. Muscle / ED Contr. Osteogenic Cells / ED Contr. Ovaries / ED Contr. Pancreas / ED Contr. Red Marrow / ED Contr. Skin / ED Contr. Small Intestine / ED Contr. Spleen / ED Contr. Stomach Wall / ED Contr. Testes / ED Contr. Thymus / ED Contr. Thyroid / ED Contr. Total Body / ED Contr. ULI Wall / ED Contr. Urinary Bladder Wall / ED Contr. Uterus: mouse PET/MRI; for OD Adrenals / OD Brain / OD Breasts / OD Gallbladder Wall / OD Heart Wall / OD Kidneys / OD LLI Wall / OD Liver / OD Lungs / OD Muscle / OD Osteogenic Cells / OD Ovaries / OD Pancreas / OD Red Marrow / OD Skin / OD Small Intestine / OD Spleen / OD Stomach Wall / OD Testes / OD Thymus / OD Thyroid / OD Total Body / OD ULI Wall / OD Urinary Bladder Wall / OD Uterus: scaled to human adult male model; for ED Contr. Adrenals / ED Contr. Brain / ED Contr. Breasts / ED Contr. Gallbladder Wall / ED Contr. Heart Wall / ED Contr. Kidneys / ED Contr. LLI Wall / ED Contr. Liver / ED Contr. Lungs / ED Contr. Muscle / ED Contr. Osteogenic Cells / ED Contr. Ovaries / ED Contr. Pancreas / ED Contr. Red Marrow / ED Contr. Skin / ED Contr. Small Intestine / ED Contr. Spleen / ED Contr. Stomach Wall / ED Contr. Testes / ED Contr. Thymus / ED Contr. Thyroid / ED Contr. Total Body / ED Contr. ULI Wall / ED Contr. Urinary Bladder Wall / ED Contr. Uterus / ED: ICRP 103 weighting; for ED ICRP 60 / ED: mouse, imaging (PET/MRI); for ED ICRP 60: ICRP 60 weighting
Experimental: The animals were initially anesthetized with 4% of isoflurane and were positioned prone in a small-animal PET/MRI system (nanoScan® PET/MRI, MEDISO, Budapest, Hungary) equipped with respiratory monitoring, heated mouse bed (37 °C), and inhalation anesthesia (1.8% isoflurane in a 60% oxygen/40% air gas mixture at 250 mL/min airflow; Anaesthesia Unit U-410, agntho’s, Lidingö, Sweden; Gas blender 100 series, MCQ Instruments, Rome, Italy). Prior to the PET scan, a scout image MR sequence was done to outline the animal dimensions. Female CD-1 mice (age: 12 weeks, weight: 30.9 ± 1.3 g) were injected via the tail vein with (S)-(−)-[^18F]fluspidine (13.2 ± 3.0 MBq; n = 3) or (R)-(+)-[^18F]fluspidine (12.6 ± 1.4 MBq; n = 3) in a volume of 200 μL saline. The injected dose was calculated by the difference of the radioactivity in the syringe before and after the injection. A dynamic whole body animal PET scan of 105 min length (Figure 1) was started simultaneously. This scanning time was chosen to represent the protocol of the human study (after time extrapolation according to Equation (2)) based on a priori biokinetic information from the ex vivo investigation. Following the PET scan, a 20 min T1-weighted whole body MR scan (gradient echo sequence, TR = 20 ms; TE = 3.2 ms) was performed for anatomical orientation after co-registration and attenuation correction at the reconstruction step.
The PET images were iteratively (ordered-subsets expectation maximization, OSEM) reconstructed (preclinical: 4 iterations, 6 subsets; clinical: 4 iterations, 8 subsets) and corrected for decay, randoms, scatter, and dead time, μ-maps for attenuation correction of PET-emission data were derived from the CT or MR [49] structural data, respectively. The PET data were re-binned into 10 time frames (preclinical: 4 × 5 min, 1 × 10 min, and 5 × 15 min; clinical: 4 × 12 min, 3 × 16 min, 1 × 32 min, 1 × 40 min, and 1 × 48 min), and the reconstructed PET/MRI and PET/CT images were co-registered manually with ROVER (ABX, advanced chemical compounds, Radeberg, Germany, version 2.1.17). Quantitative evaluation was performed by drawing volumes of interest (VOI) for brain, gallbladder, large intestine, small intestine, stomach, heart, kidneys, liver, lungs, pancreas, red marrow (backbone, pelvis, sternum), spleen, thyroid, testes, and urinary bladder (Figure S4). The PET derived biokinetic data is expressed as percentage of injected activity (dose) per cubic centimeter (%ID/cm^3).
For human dosimetry estimation from animal biodistribution and PET/MR imaging, animal organ masses and time scale was extrapolated to human magnitudes. At first, the organ-specific animal %ID data were extrapolated to the human scale with the equation (1) %ID/organhuman=%ID/gmouse · morganhuman · mmouse/mhuman with the fraction of the injected activity in the corresponding human organ = %ID/organhuman , the fraction of injected activity per gram animal organ tissue = %ID/gmouse and morganhuman the mass of the corresponding human organ. At second, a time scale extrapolation is needed due to differences in the metabolic rate using the equation (2) thuman=tmouse{mhuman/mmouse}^0.25 including the human time scale = thuman , the animal time scale = tmouse and the ratio of animal and human body weights = mmouse/mhuman .
The human dosimetry estimation was performed with the data extrapolated as well as the genuine human data using OLINDA/EXM software. The time-activity curves were estimated by exponential fitting and calculating the time integral, which equals the number of disintegrations (NODs) per organ during the observation period normalized to 1 Becquerel administered activity dose. […] Therefore, activity data of the urinary bladder was derived from the image for each time point. In contrast, for humans the activity concentration data of the urinary bladder was obtained in a more direct approach. […]

Question: What does the source list for `[18F]CC[C@H]1OC2(CCN(Cc3ccccc3)CC2)c2ccccc21` [(R)-(+)-[^18F]fluspidine]?
Answer: OD values of (R)-(+)-enantiomer relative to (S)-(−)-enantiomer (mice, scaled to human): up to 1.3 fold; OD Adrenals: 11.00 μSv/MBq; OD Brain: 13.20 μSv/MBq; OD Breasts: 6.19 μSv/MBq; OD Gallbladder Wall: 30.10 μSv/MBq; OD Heart Wall: 10.50 μSv/MBq; OD Kidneys: 26.90 μSv/MBq; OD LLI Wall: 13.80 μSv/MBq; OD Liver: 26.10 μSv/MBq; OD Lungs: 10.80 μSv/MBq; OD Muscle: 7.86 μSv/MBq; OD Osteogenic Cells: 14.00 μSv/MBq; OD Ovaries: 11.90 μSv/MBq; OD Pancreas: 24.80 μSv/MBq; OD Red Marrow: 12.80 μSv/MBq; OD Skin: 5.82 μSv/MBq; OD Small Intestine: 22.60 μSv/MBq; OD Spleen: 31.80 μSv/MBq; OD Stomach Wall: 12.70 μSv/MBq; OD Testes: 7.63 μSv/MBq; OD Thymus: 7.52 μSv/MBq; OD Thyroid: 10.10 μSv/MBq; OD Total Body: 9.13 μSv/MBq; OD ULI Wall: 25.60 μSv/MBq; OD Urinary Bladder Wall: 55.70 μSv/MBq; OD Uterus: 13.00 μSv/MBq; ED Contr. Adrenals (scaled to human): 0.09 μSv/MBq; ED Contr. Brain (scaled to human): 0.13 μSv/MBq; ED Contr. Breasts (scaled to human): 0.74 μSv/MBq; ED Contr. Gallbladder Wall (scaled to human): 0.26 μSv/MBq; ED Contr. Heart Wall (scaled to human): 0.09 μSv/MBq; ED Contr. Kidneys (scaled to human): 0.23 μSv/MBq; ED Contr. LLI Wall (scaled to human): 0.83 μSv/MBq; ED Contr. Liver (scaled to human): 1.04 μSv/MBq; ED Contr. Lungs (scaled to human): 1.30 μSv/MBq; ED Contr. Muscle (scaled to human): 0.07 μSv/MBq; ED Contr. Osteogenic Cells (scaled to human): 0.14 μSv/MBq; ED Contr. Ovaries (scaled to human): 0.95 μSv/MBq; ED Contr. Pancreas (scaled to human): 0.21 μSv/MBq; ED Contr. Red Marrow (scaled to human): 1.53 μSv/MBq; ED Contr. Skin (scaled to human): 0.06 μSv/MBq; ED Contr. Small Intestine (scaled to human): 0.20 μSv/MBq; ED Contr. Spleen (scaled to human): 0.27 μSv/MBq; ED Contr. Stomach Wall (scaled to human): 1.52 μSv/MBq; ED Contr. Testes (scaled to human): 0.00 μSv/MBq; ED Contr. Thymus (scaled to human): 0.06 μSv/MBq; ED Contr. Thyroid (scaled to human): 0.41 μSv/MBq; ED Contr. Total Body (scaled to human): 0.00 μSv/MBq; ED Contr. ULI Wall (scaled to human): 1.54 μSv/MBq; ED Contr. Urinary Bladder Wall (scaled to human): 2.23 μSv/MBq; ED Contr. Uterus (scaled to human): 0.11 μSv/MBq; ED ICRP 60 (scaled to human): 15.2 μSv/MBq; ED (scaled to human): 14.0 μSv/MBq; ED (scaled to human, listed as (R)-(+)-[^18F]Fluspidine): 14.0 μSv/MBq

Question: Which results are given for `FCC[C@@H]1OC2(CCN(Cc3ccccc3)CC2)c2ccccc21` [(S)-(−)-[^18F]fluspidine]?
Answer: OD Adrenals: 10.50 μSv/MBq; OD Brain: 10.10 μSv/MBq; OD Breasts: 5.93 μSv/MBq; OD Gallbladder Wall: 25.60 μSv/MBq; OD Heart Wall: 9.85 μSv/MBq; OD Kidneys: 37.60 μSv/MBq; OD LLI Wall: 14.00 μSv/MBq; OD Liver: 25.00 μSv/MBq; OD Lungs: 10.40 μSv/MBq; OD Muscle: 7.57 μSv/MBq; OD Osteogenic Cells: 12.70 μSv/MBq; OD Ovaries: 11.50 μSv/MBq; OD Pancreas: 10.90 μSv/MBq; OD Red Marrow: 10.80 μSv/MBq; OD Skin: 5.61 μSv/MBq; OD Small Intestine: 23.10 μSv/MBq; OD Spleen: 26.10 μSv/MBq; OD Stomach Wall: 10.50 μSv/MBq; OD Testes: 7.46 μSv/MBq; OD Thymus: 7.19 μSv/MBq; OD Thyroid: 7.61 μSv/MBq; OD Total Body: 8.68 μSv/MBq; OD ULI Wall: 20.50 μSv/MBq; OD Urinary Bladder Wall: 58.00 μSv/MBq; OD Uterus: 12.80 μSv/MBq; ED Contr. Adrenals (scaled to human): 0.09 μSv/MBq; ED Contr. Brain (scaled to human): 0.10 μSv/MBq; ED Contr. Breasts (scaled to human): 0.71 μSv/MBq; ED Contr. Gallbladder Wall (scaled to human): 0.22 μSv/MBq; ED Contr. Heart Wall (scaled to human): 0.08 μSv/MBq; ED Contr. Kidneys (scaled to human): 0.32 μSv/MBq; ED Contr. LLI Wall (scaled to human): 0.84 μSv/MBq; ED Contr. Liver (scaled to human): 1.00 μSv/MBq; ED Contr. Lungs (scaled to human): 1.25 μSv/MBq; ED Contr. Muscle (scaled to human): 0.07 μSv/MBq; ED Contr. Osteogenic Cells (scaled to human): 0.13 μSv/MBq; ED Contr. Ovaries (scaled to human): 0.92 μSv/MBq; ED Contr. Pancreas (scaled to human): 0.09 μSv/MBq; ED Contr. Red Marrow (scaled to human): 1.30 μSv/MBq; ED Contr. Skin (scaled to human): 0.06 μSv/MBq; ED Contr. Small Intestine (scaled to human): 0.20 μSv/MBq; ED Contr. Spleen (scaled to human): 0.22 μSv/MBq; ED Contr. Stomach Wall (scaled to human): 1.26 μSv/MBq; ED Contr. Testes (scaled to human): 0.00 μSv/MBq; ED Contr. Thymus (scaled to human): 0.06 μSv/MBq; ED Contr. Thyroid (scaled to human): 0.30 μSv/MBq; ED Contr. Total Body (scaled to human): 0.00 μSv/MBq; ED Contr. ULI Wall (scaled to human): 1.23 μSv/MBq; ED Contr. Urinary Bladder Wall (scaled to human): 2.32 μSv/MBq; ED Contr. Uterus (scaled to human): 0.11 μSv/MBq; ED ICRP 60 (scaled to human): 14.8 μSv/MBq; ED (scaled to human): 12.9 ± 0.4 μSv/MBq and 12.9 μSv/MBq; ED (scaled to human, listed as (S)-(−)-[^18F]Fluspidine): 12.9 μSv/MBq

Source: paper PMC6273209, “Evaluation of the Enantiomer Specific Biokinetics and Radiation Doses of [^18F]Fluspidine—A New Tracer in Clinical Translation for Imaging of σ1 Receptors” (Molecules, 2016)
